Test results: article PMC12775434, “Ultra-large virtual screening unveils potent agonists of the neuromodulatory orphan receptor GPR139” (Nature Communications, 2025)
Where “and” joins values, the source holds several entries; their conditions need not be identical. Equal entries are not always repeated. Blank lines part the entries; values can stand above or below the compound they belong to.

What was measured:
Format in all cases: cell-based
[1] = molecular target: T1, human muscarinic acetylcholine M1 receptor (M1R) (Homo sapiens, UniProt P11229); test: Ca2+ mobilization counter-screen in M1R-CHOk1 cells
T1 sequence (P11229 1-460): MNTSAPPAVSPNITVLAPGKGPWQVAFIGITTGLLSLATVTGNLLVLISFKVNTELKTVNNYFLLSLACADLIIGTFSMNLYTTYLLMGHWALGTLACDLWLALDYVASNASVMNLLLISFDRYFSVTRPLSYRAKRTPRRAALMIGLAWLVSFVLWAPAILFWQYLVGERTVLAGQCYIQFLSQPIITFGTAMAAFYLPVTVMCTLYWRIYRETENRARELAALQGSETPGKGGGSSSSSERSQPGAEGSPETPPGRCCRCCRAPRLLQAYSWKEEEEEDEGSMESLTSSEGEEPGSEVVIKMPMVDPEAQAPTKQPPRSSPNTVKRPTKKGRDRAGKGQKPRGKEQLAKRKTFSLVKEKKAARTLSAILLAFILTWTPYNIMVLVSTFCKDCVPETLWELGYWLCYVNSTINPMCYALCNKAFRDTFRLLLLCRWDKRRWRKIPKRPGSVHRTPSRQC
Method in brief: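 Intracellular calcium is tracked by Fluo-4 fluorescence at 37 °C in M1R-CHOk1 cells, with compounds dispensed automatically once baseline is taken. Buffer is HBSS with 20 mM HEPES, pH 7.4, plus 2.5 mM probenecid.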

GPR139 [2] = molecular target: T2, GPR139 (Homo sapiens, UniProt Q6DWJ6); test: Ca2+ mobilization assay, agonist mode, stable GPR139-CHOk1 cell line; settings: for EC50: GPR139-CHOk1, read-out: EC50, Ca2+ mobilization; for Emax: Supplementary Table 2, normalized to Lundbeck Cmp 1a, mean ± SEM, read-out: Emax (%) Ca2+
T2 sequence (Q6DWJ6 1-353): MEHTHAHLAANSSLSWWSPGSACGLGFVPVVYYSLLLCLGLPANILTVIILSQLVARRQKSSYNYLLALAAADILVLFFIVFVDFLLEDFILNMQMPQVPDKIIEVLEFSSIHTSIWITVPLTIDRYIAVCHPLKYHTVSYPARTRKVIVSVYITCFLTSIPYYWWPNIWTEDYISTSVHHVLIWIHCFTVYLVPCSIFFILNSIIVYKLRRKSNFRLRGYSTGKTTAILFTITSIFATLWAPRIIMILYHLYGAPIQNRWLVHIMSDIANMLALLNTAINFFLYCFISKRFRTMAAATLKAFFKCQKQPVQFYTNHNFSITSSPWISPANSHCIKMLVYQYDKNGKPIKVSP
Method in brief: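 Agonist activity of compounds is assessed in stably transfected CHO-K1 cells using the calcium dye Fluo-4 at 37 °C in HEPES-buffered HBSS (pH 7.4). Efficacy is expressed relative to the reference agonist Lundbeck Cmp 1a, set as 100%.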

GPR139 [3] = molecular target: T2, GPR139; test: Ca2+ mobilization assay, antagonist mode (EC80 800 nM Lundbeck Cmp 1a after 20 min preincubation), GPR139-CHOk1
Method in brief: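 Fluo-4-loaded GPR139-CHOk1 cells in HEPES-buffered HBSS (pH 7.4, 2.5 mM probenecid) given test compounds at 10 µM, then after 20 min challenged with 800 nM Lundbeck Cmp 1a (EC80). Calcium fluorescence read at 37 °C, 485/525 nm.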

Ca2+ signal (% of Cmp 1a) (GPR139 [2]; 0.1 µM, individual replicates (Supplementary Figure 3)): 18.1 % of Cmp 1a and 15.9 % of Cmp 1a
Ca2+ signal (% of Cmp 1a) (GPR139 [2]; 1 µM, individual replicates (Supplementary Figure 3)): 65.0 % of Cmp 1a and 52.8 % of Cmp 1a
Ca2+ signal (% of Cmp 1a) (GPR139 [2]; 10 µM, individual replicates (Supplementary Figure 3)): 86.8 % of Cmp 1a and 54.5 % of Cmp 1a
EC50 (GPR139 [2]): 320 nM
Emax (GPR139 [2]): 83 ± 6%
SMILES: COC(=O)c1cc(NC(=O)NC(C)c2cccc(F)c2F)ccc1C (centres unmarked) [Compound 2, COC(=O)C=1C=C(NC(=O)NC(C)C=2C=CC=C(F)C2F)C=CC1C]
Ca2+ signal (% of Carbachol) ([1]; individual replicates (Supplementary Figure 2)): -10 % of Carbachol and 1.81 % of Carbachol
Ca2+ signal (% of Cmp 1a) (GPR139 [2]; Agonist mode, individual replicates (Supplementary Figure 1)): 81 % of Cmp 1a and 65 % of Cmp 1a and 84 % of Cmp 1a
Ca2+ signal (% of Cmp 1a) (GPR139 [2]; log [Compound] M -4.5, replicate experiments): 74 % of Cmp 1a and 103 % of Cmp 1a and 90 % of Cmp 1a
Ca2+ signal (% of Cmp 1a) (GPR139 [2]; log [Compound] M -5.0, replicate experiments): 60 % of Cmp 1a and 92 % of Cmp 1a and 78 % of Cmp 1a
Ca2+ signal (% of Cmp 1a) (GPR139 [2]; log [Compound] M -5.5, replicate experiments): 65 % of Cmp 1a and 88 % of Cmp 1a and 71 % of Cmp 1a
Ca2+ signal (% of Cmp 1a) (GPR139 [2]; log [Compound] M -6.0, replicate experiments): 66 % of Cmp 1a and 74 % of Cmp 1a and 68 % of Cmp 1a
Ca2+ signal (% of Cmp 1a) (GPR139 [2]; log [Compound] M -6.5, replicate experiments): 25 % of Cmp 1a and 58 % of Cmp 1a and 38 % of Cmp 1a
Ca2+ signal (% of Cmp 1a) (GPR139 [2]; log [Compound] M -7.0, replicate experiments): 16 % of Cmp 1a and 20 % of Cmp 1a and 28 % of Cmp 1a
Ca2+ signal (% of Cmp 1a) (GPR139 [2]; log [Compound] M -7.5, replicate experiments): -9 % of Cmp 1a and -8 % of Cmp 1a and 6 % of Cmp 1a
Ca2+ signal (% of Cmp 1a) (GPR139 [2]; log [Compound] M -8.0, replicate experiments): -12 % of Cmp 1a and -7 % of Cmp 1a and 2.84 % of Cmp 1a
Ca2+ signal (% of Cmp 1a) (GPR139 [2]; log [Compound] M -8.5, replicate experiments): -1.88 % of Cmp 1a and 9 % of Cmp 1a and 21 % of Cmp 1a
Ca2+ signal (% of Cmp 1a) (GPR139 [2]; log [Compound] M -9.0, replicate experiments): -14 % of Cmp 1a and 6 % of Cmp 1a and 7 % of Cmp 1a
Ca2+ signal (% of Cmp 1a) (GPR139 [2]; primary screen, 10 µM compound, agonist mode, three columns = independent experiments): 81 % of Cmp 1a and 65 % of Cmp 1a and 84 % of Cmp 1a
Ca2+ signal (% of Cmp 1a) (GPR139 [3]; individual replicates (Supplementary Figure 1)): 21.0785 % of Cmp 1a and 18.2142 % of Cmp 1a and 25.1866 % of Cmp 1a

fold improved potency compared to compound 1 (GPR139 [2]; Ca2+ mobilization EC50): 3 fold
EC50 (GPR139 [2]): 50 nM
Emax (GPR139 [2]): 116 ± 6%
SMILES: COc1ccccc1-c1nc(CC(=O)NC(C)c2ccccc2)no1 (centres unmarked) [Compound 1.2, COC1=C(C2=NC(CC(NC(C3=CC=CC=C3)C)=O)=NO2)C=CC=C1]
Ca2+ signal (% of Carbachol) ([1]; individual replicates (Supplementary Figure 5)): -21 % of Carbachol and 0.491 % of Carbachol and -3.3 % of Carbachol
Ca2+ signal (% of Cmp 1a) (GPR139 [2]; Agonist mode, individual replicates (Supplementary Figure 4)): 84 % of Cmp 1a and 90 % of Cmp 1a and 64 % of Cmp 1a
Ca2+ signal (% of Cmp 1a) (GPR139 [2]; log [Compound] M = -4.5, individual replicate columns): 101 % of Cmp 1a and 98 % of Cmp 1a and 89 % of Cmp 1a and 111 % of Cmp 1a and 113 % of Cmp 1a
Ca2+ signal (% of Cmp 1a) (GPR139 [2]; log [Compound] M = -5.0, individual replicate columns): 95 % of Cmp 1a and 88 % of Cmp 1a and 96 % of Cmp 1a and 108 % of Cmp 1a (2×)
Ca2+ signal (% of Cmp 1a) (GPR139 [2]; log [Compound] M = -5.5, individual replicate columns): 86 % of Cmp 1a and 100 % of Cmp 1a and 98 % of Cmp 1a and 101 % of Cmp 1a and 103 % of Cmp 1a
Ca2+ signal (% of Cmp 1a) (GPR139 [2]; log [Compound] M = -6.0, individual replicate columns): 77 % of Cmp 1a (2×) and 83 % of Cmp 1a and 90 % of Cmp 1a and 93 % of Cmp 1a
Ca2+ signal (% of Cmp 1a) (GPR139 [2]; log [Compound] M = -6.5, individual replicate columns): 65 % of Cmp 1a and 81 % of Cmp 1a and 77 % of Cmp 1a and 70 % of Cmp 1a and 86 % of Cmp 1a
Ca2+ signal (% of Cmp 1a) (GPR139 [2]; log [Compound] M = -7.0, individual replicate columns): 63 % of Cmp 1a (2×) and 64 % of Cmp 1a and 53 % of Cmp 1a and 56 % of Cmp 1a
Ca2+ signal (% of Cmp 1a) (GPR139 [2]; log [Compound] M = -7.5, individual replicate columns): 46 % of Cmp 1a and 38 % of Cmp 1a and 39 % of Cmp 1a and 41 % of Cmp 1a and 52 % of Cmp 1a
Ca2+ signal (% of Cmp 1a) (GPR139 [2]; log [Compound] M = -8.0, individual replicate columns): 14 % of Cmp 1a and 11 % of Cmp 1a (2×) and 15 % of Cmp 1a and 18 % of Cmp 1a
Ca2+ signal (% of Cmp 1a) (GPR139 [2]; log [Compound] M = -8.5, individual replicate columns): 3.23 % of Cmp 1a and -2.25 % of Cmp 1a and 2.37 % of Cmp 1a and 7.37 % of Cmp 1a and 3.35 % of Cmp 1a
Ca2+ signal (% of Cmp 1a) (GPR139 [2]; log [Compound] M = -9.0, individual replicate columns): 5 % of Cmp 1a and -0.0349 % of Cmp 1a and -0.541 % of Cmp 1a and 0.358 % of Cmp 1a and 0.331 % of Cmp 1a
Ca2+ signal (% of Cmp 1a) (GPR139 [3]; individual replicates (Supplementary Figure 4)): 2 % of Cmp 1a and 4 % of Cmp 1a and 3.33 % of Cmp 1a
